Among the data in ChEMBL document CHEMBL1152937, “Carbonic anhydrase inhibitors. Inhibition and homology modeling studies of the fungal beta-carbonic anhydrase from Candida albicans with sulfonamides” (Bioorg Med Chem, 2009) are Ki values, retold here.

As a reminder, the Ki is the equilibrium dissociation constant of an inhibitor or competing ligand from its target. Low readings indicate higher affinity, high ones lower affinity.

Molecules are shown by their SMILES.

In this assay the target is T1, Carbonic anhydrase (Candida albicans (strain SC5314 / ATCC MYA-2876) (Yeast), UniProt Q5AJ71).
T1 sequence (Q5AJ71 whole entry): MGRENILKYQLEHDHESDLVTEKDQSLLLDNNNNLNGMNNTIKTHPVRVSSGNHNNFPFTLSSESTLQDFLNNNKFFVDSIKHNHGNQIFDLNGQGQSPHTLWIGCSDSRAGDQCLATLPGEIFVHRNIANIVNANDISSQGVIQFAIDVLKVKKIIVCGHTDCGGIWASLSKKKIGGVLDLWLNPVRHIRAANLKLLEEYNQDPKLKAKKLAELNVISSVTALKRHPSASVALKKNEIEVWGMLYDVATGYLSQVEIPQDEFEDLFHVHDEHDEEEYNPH
With `Nc1ccc(S(=O)(=O)NCc2ccc(S(N)(=O)=O)cc2)cc1`, the affinity corresponds to a Ki of 1.31 µM.
Take `Nc1cc(Cl)c(S(N)(=O)=O)cc1S(N)(=O)=O`: the Ki came out at 0.874 µM.
With `Nc1ccc(S(=O)(=O)Nc2nnc(S(N)(=O)=O)s2)cc1`, the Ki was found to be 1.09 µM.
The result for `NS(=O)(=O)c1nnc(-c2ccccc2Cl)s1` reads 1.29 µM; that for `Nc1nccc(Nc2ccc(S(N)(=O)=O)cc2)n1`, 1.11 µM; that for `Nc1ccc(S(N)(=O)=O)cc1Br`, 0.408 µM.
As for `Cn1nc(S(N)(=O)=O)sc1=N`, the figure is 1.37 µM; as for `NS(=O)(=O)c1ccc(CCO)cc1`, 1.21 µM; as for `Nc1ccc(S(N)(=O)=O)cc1F`, 1.24 µM.
In the case of `NS(=O)(=O)c1ccc(CO)cc1`, the Ki turned out to be 0.383 µM.
As for `NCCc1ccc(S(N)(=O)=O)cc1`, the figure is 3.2 µM.
The result for `Nc1ccc(S(N)(=O)=O)cc1Cl` reads 1.34 µM; that for `Nc1ccc(S(=O)(=O)NCCc2ccc(S(N)(=O)=O)cc2)cc1`, 0.727 µM; that for `Nc1cc(C(F)(F)F)c(S(N)(=O)=O)cc1S(N)(=O)=O` [2,4-DISULFAMYLTRIFLUOROMETHYLANILINE], 6.11 µM.
As for `NS(=O)(=O)c1nnc(NS(=O)(=O)c2ccccc2)s1` [BENZOLAMIDE], the figure is 1.51 µM; as for `CCN[C@H]1CN(CCCOC)S(=O)(=O)c2sc(S(N)(=O)=O)cc21` [BRINZOLAMIDE], 1.1 µM.
As to `NS(=O)(=O)c1ccc(C(=O)O)cc1` [CARZENIDE], affinity was put at a Ki of 0.861 µM.
As for `Cc1ccc(-c2cc(C(F)(F)F)nn2-c2ccc(S(N)(=O)=O)cc2)cc1` [CELECOXIB], the figure is 1.02 µM.
As for `NCc1ccc(S(N)(=O)=O)cc1` [MAFENIDE], the Ki worked out at 1.11 µM.
On to `O=C1NS(=O)(=O)c2ccccc21` [SACCHARIN], for which the Ki came out at 0.736 µM.
The result for `Nc1ccc(S(N)(=O)=O)cc1` [SULFANILAMIDE] reads 7.63 µM; that for `CC1(C)O[C@@H]2[C@@H](CO[C@@]3(COS(N)(=O)=O)OC(C)(C)O[C@@H]23)O1` [TOPIRAMATE], 1.11 µM.
